The source of these data is patent publication US20040127467A1, “Synthesis of pancratistatin prodrugs” (priority 2003, published 2004).

Series [1] concerns minipanel of human cancer cell lines. The series can be described thus: minipanel of human cancer cell lines growth inhibition. The series is classed as cell-based. The following applies: murine P388 and minipanel of human cancer cell lines (Table I). On the procedure:
All of the synthetic products were evaluated against the murine P388 lymphocytic leukemia cell line and a minipanel of human cancer cell lines.

The conditions of series [2]: compared with pancratistatin (1a); cited from earlier work.
For series [3], the system named is murine P388 lymphocytic leukemia cell line. As to conditions: compared with pancratistatin (1a); cited from earlier work.
Series [4] concerns U.S. National Cancer Institute (NCI) panel of cancer cell lines. As to conditions: cited from earlier work.
The test system of the next series is RNA viruses. As to conditions: cited from earlier work.

Turning to `C1COCCN1.O=C1NC2C(O)C(O)C(O)C(O)C2c2cc3c(c(OP(=O)(O)O)c21)OCO3` (stereo not drawn) [2k, Morpholine pancratistatin 7-O-phosphate], the “water solubility (in words)” value was “poor water solubility”.

`O=C1N[C@H]2[C@H](O)[C@H](O)[C@@H](O)[C@H](O)[C@@H]2c2cc3c(c(OP(=O)([O-])[O-])c21)OCO3.[Na+].[Na+]` [2a, Disodium 7-O-phosphoryl-pancratistatin]: the “cancer cell line activity (in words)” value in series [1] was “high activity”. In addition, the “solubility characteristics in water (in words)” value in series [2] was “greatly improved solubility characteristics in water”. Moreover, the “activity against the murine P388 lymphocytic leukemia cell (in words)” value in series [3] was “equal activity”.

For the compound `O=C1N[C@H]2[C@H](O)[C@H](O)[C@@H](O)[C@H](O)[C@@H]2c2cc3c(c(O)c21)OCO3` [1a, (+)-pancratistatin], the “in vitro cancer cell growth inhibitory activities (in words)” value in series [4] is on record as “strong”. Also, in the series with RNA viruses, the “activity against a range of RNA viruses (in words)” value is reported as “activity against a range of RNA viruses”.
